One data set concerns HT29 cell line. The data set is described as follows: BrdU cell growth inhibition, HT29. The note with it: Homo sapiens. In kind it is cell-based, human. The procedure, abridged: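 HT29 colon carcinoma cells treated with compounds diluted from 20 mM DMSO stocks into DMEM/10% FBS. Proliferation read as colorimetric BrdU incorporation ELISA; GI calculated relative to untreated cells at time 0 and control cells at day n, with GI50 extrapolated. Net cell loss below time-0 level scored as cytotoxicity.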

For data set [1], the system named is osteoclast precursors derived from spleen cells. The data set is described as follows: osteoclast formation from spleen cells. Format: cell-based. The note with it: 5 days, RANKL and M-CSF, vs untreated control. Here is the method: To determine the effect of the compounds on osteoclast formation, the compounds were added to osteoclast precursors derived from spleen cells. For the generation of spleen-derived osteoclasts, spleen cells comprising osteoclast precursors were treated with Rapamycin, KX1-141, KX2-328 (AstraZeneca compound), or KX1-329 for 5 days in the presence of receptor activator of nuclear factor-xB ligand (RANKL) and macrophage colony-stimulating factor (M-CSF). In in vitro murine or human osteoclast models, soluble RANKL enables osteoclast precursors to differentiate in the presence of M-CSF (Quinn, et al.; 1998, Endocrinology, 139, 4424-4427; Jimi, et al.; 1999, J. Immunol., 163, 434-442). The untreated control cells were incubated in the presence of RANKL and M-CSF alone. Rapamycin was used as a positive control for the inhibition of osteoclast formation.
For generating spleen-derived osteoclasts, spleen cells were treated as described above. […] Cells were then stained with the osteoclast marker, tartrate-resistant acid phosphatase (TRAP) to visualize differentiated cells. The numbers of TRAP-positive osteoclasts were counted.

The test system of data set [2] is resorption pits on bone slices. In words: resorption pit formation on bone slices. In kind it is cell-based. The note with it: vs untreated control. As for the experimental part:
During the resorption of bone, osteoclasts form resorption pits. To determine the effects of the compounds on resorption pit formation on bone slices, the bone slices were treated with Rapamycin, KX1-141, KX2-328, or KX1-329, as described above. […] The number of resorption pits on the bone slices was determined.
Bone slices were treated as indicated above. […] The bone slices were stained with Toluidine Blue to reveal resorption pits, which are indicators of osteoclast-mediated resorption of bone.

The next data set has as its system c-Src 3T3 cells. The data set is described as follows: BrdU cell growth inhibition, c-Src 3T3. In kind it is cell-based, mouse. The note with it: Mus musculus. The procedure, abridged:
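c-Src 3T3 cells on poly-D-lysine plates in DMEM with 2% FBS, L-glutamine, pyruvate and 10 mM HEPES. Compounds came from 20 mM DMSO stocks diluted in DMEM/10% FBS. Proliferation was read by colorimetric BrdU-incorporation ELISA, and GI50 was extrapolated from growth relative to time-zero and untreated controls.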

The nature of data set [3]: noise-induced hearing loss. In kind it is in vivo, Chinchillas. The note with it: chinchilla ears treated on round window, 4 kHz band noise 105 dB SPL 4 h, days 1, 7, 21; relative to control ears. As for the experimental part:
Chinchillas (N=6) were used in studies of noise-induced hearing loss. The animals' hearing sensitivity was measured using standard electrophysical techniques before the experimental manipulation. […] Animals were anesthetized, the auditory bullae were opened, and the left and right cochleas were visualized. The round window leading to the scala tympani of the cochlea was used as the access point for drug application. Animals were treated with KX1-004, KX1-141, KX1-329 or KX2-328 (a non-ATP competitive inhibitor from AstraZeneca, KX2-238), emulsified in DMSO, in 1000 mM of saline solution, which was placed on the round window of one ear. KX1-004:
A control solution of 3 mM DMSO in 1000 mM of saline solution was placed on the round window of the other ear. The solution was allowed to set on the round window for 30 minutes, then the auditory bullae were closed. […] Following the noise exposure, the animals' hearing was tested at day 1, day 7, and day 21 to determine evoked potential threshold shifts. Permanent threshold shift was assessed at day 21.
FIGS. 10-12 show the average threshold shifts for animals treated with KX1-004, KX1-141, KX1-329 or KX2-328.

Another data set relates to osteoblasts. The data set is described as follows: osteoblast protein expression. Format: cell-based. As for the experimental part:
The enzyme alkaline phosphatase has been used as an indicator of osteoblast activity, as it is involved in making phosphate available for calcification of bone.
To determine the effects of the compounds on osteoblast activity and protein expression, osteoblasts were treated with medium, DMSO, BMP2, KX1-141, KX2-328, or KX1-329 as indicated above. The protein concentration in cell lysates was determined (μg/10 μl) (FIG. 23).

Data set [4] relates to osteoclasts on bone slices. In words: osteoclast formation on bone slices. The note with it: vs untreated control. In kind it is cell-based. Here is the method: To determine the effects of the compounds on osteoclast formation on bone slices, the bone slices were treated with Rapamycin, KX1-141, KX2-328, or KX1-329. […] The number of osteoclasts on the bone slices were counted.
Bone slices were treated as indicated above. […] The bone slices were then stained with TRAP.

The subject of a further data set is osteoclasts. In words: osteoclast survival. Format: cell-based. The note with it: 48 hours, RANKL and M-CSF, vs untreated control. Here is the method:
To determine the effect of the compounds on osteoclast survival, osteoclasts were treated with Rapamycin, KX1-141, KX2-328, or KX1-329 for 48 hours in the presence of RANKL and M-CSF. The untreated, control cells were incubated in the presence of RANKL and M-CSF alone. Rapamycin was used as a positive control for the inhibition of osteoclast survival.
As described above, osteoclasts were treated with Rapamycin, KX1-141, KX2-328, or KX1-329 for 48 hours in the presence of RANKL and M-CSF. […] Cells were then stained with TRAP and the number of TRAP-positive osteoclasts were counted.

Data set [5] relates to CCRF-HSB-2 (Adult lymphoblastic leukemia). The data set is described as follows: growth inhibition, CCRF-HSB-2. Format: cell-based, Human.
Data set [6] relates to PC3-MM2 prostate cancer cells. In words: orthotopic prostate model for in vivo metastases. Also noted: species or system Nu/Nu mice. The note with it: 15 mg/kg/day oral gavage. Here is the method: Nu/Nu mice (8-12 weeks of age) were injected with PC3-MM2 prostate cancer cells into the prostate as described previously in Pettaway et al., Clin Cancer Res 1996, 2:1627-1636, hereby incorporated herein by reference in its entirety. […] All mice were sacrificed by cervical dislocation on about day 42. Tumor volume (measured by caliper), weight, and incidence of regional (celiac or para-aortal) lymph node metastases were recorded.

The next data set has as its system Hep 3B. The data set is described as follows: MTT growth inhibition, Hep 3B. The note with it: Homo sapiens, Hep3B, 78 h. Format: cell-based, human. Here is the method: (§1) Samples of the test compounds were formulated in 100% DMSO to obtain 20 mM stock solutions; stored @ 4° C. The IC50s and IC80s were determined as described below. Huh7, WRL-68, PLC/PRF/5, Hep 3B, and Hep G2 human cancer lines were routinely cultured and maintained in a basal medium containing 2% FBS @ 37° C., 5% CO2. […] Vehicle control contained cells, no sample. Medium control contained cells, no sample, 0.03% DMSO (highest DMSO concentration present in samples). […] On day 3, 10 μL MTT (5 mg/mL) were added to each well. Cells were incubated in the presence of MTT for 4 hours @ 37° C., 5% CO2. […] Cells were then incubated overnight @ 37°, 5% CO2. OD570 measurements were taken using BioTek Synergy HT multiplatform microplate reader. Growth inhibition curves IC50s and IC80s were determined using GraphPad Prism 5 statistical software.

The next data set concerns Ba/F3 (IL-3 induced). The data set is described as follows: MTT growth inhibition, Ba/F3 + IL-3. In kind it is cell-based. The note with it: 96 hrs.
The subject of another data set is K562 (CML). The data set is described as follows: growth inhibition (BrdU), K562. In kind it is cell-based, Human. The note with it: Homo sapiens; K562, BrdU, T=72. The source says: Growth Inhibition. […] T1 values≤T0 values were designated as T, cytotoxicity.
In a further data set the test system is H226. In words: MTT growth inhibition, Dasatinib-resistant H226. Format: cell-based, human. The note with it: Homo sapiens, NCI-H226, H226, 8.0×10^3 cells/well, 1.5% FBS, 78 Hr.
The next data set relates to PLC/PRF/5. The data set is described as follows: MTT growth inhibition, PLC/PRF/5. In kind it is cell-based, human. The note with it: Homo sapiens, PLC-PRF-5, 78 h. Here is the method: as §1
Data set [7] has as its system HT29 (human colon cancer). The note with it: mouse, in vivo.
Data set [8] relates to MOLT-4 (Adult lymphoblastic leukemia). In words: growth inhibition, MOLT-4. Format: cell-based, Human. The note with it: Homo sapiens.
For a further data set, the system named is WRL-68. The data set is described as follows: MTT growth inhibition, WRL-68. Format: cell-based, human. The note with it: Homo sapiens, WRL68, 78 h. Here is the method: as §1
A further data set deals with HuH7. In words: MTT growth inhibition, HuH7. In kind it is cell-based, human. The note with it: Homo sapiens, Huh-7, 78 h. Here is the method: Samples of the test compounds were formulated in 100% DMSO to obtain 20 mM stock solutions; stored @ 4° C. The IC50s and IC80s were determined as described below. Huh7, WRL-68, PLC/PRF/5, Hep 3B, and Hep G2 human cancer lines were routinely cultured and maintained in a basal medium containing 2% FBS @ 37° C., 5% CO2. […] The assay medium was basal medium/1.5% FBS. Cells were cultured overnight in 96-well plates at 37° C., 5% CO2 prior to KX2-391. MSA and Dasatinib addition. […] 10 μL of 20× dilutions were added to the appropriate wells (n=3) containing 190 μL cancer cell line; 6561 nM to 0.012 nM range of final concentrations. Vehicle control contained cells, no sample. Medium control contained cells, no sample, 0.03% DMSO (highest DMSO concentration present in samples). […] On day 3, 10 μL MTT (5 mg/mL) were added to each well. Cells were incubated in the presence of MTT for 4 hours @ 37° C., 5% CO2. […] Cells were then incubated overnight @ 37°, 5% CO2. OD570 measurements were taken using BioTek Synergy HT multiplatform microplate reader. Growth inhibition curves IC50s and IC80s were determined using GraphPad Prism 5 statistical software.

The record followed here is patent US10196357B2, “Biaryl compositions and methods for modulating a kinase cascade” (Athenex, Inc., priority 2007, dated 2019).

SMILES strings stand for the structures. Entries after “also recorded” stand apart in the source; their conditions may differ.

Method for H226: Cell proliferation/growth inhibition was assessed using MTT colorimetric assay.
On Day 3, 10 μL MTT (5 mg/mL) was added to each well. Cells were then incubated in the presence of MTT for 4 hours at 37° C., appropriate CO2 conditions. After this incubation period, 90 μL 10% SDS(+HCl) was added to each well to lyse cells and solubilize formazan. Cells were then incubated overnight at 37° C., appropriate CO2 conditions.
The OD570 was measured using microplate reader. Growth inhibition curves and EC50/IC50 was determined using GraphPad Prism 4 statistical software.

For orientation: GI50 means the concentration giving 50% growth inhibition. For the compound `O=C(Cc1ccc(-c2ccccc2)cn1)NCc1cccc(F)c1` [KX1-329], the 50% growth inhibitory concentration (GI50) in the data set with HT29 cell line (HT-29, HT29 (Colon) cells, read-out: GI50) is 338 nM. Moreover, in the data set on HT29 cell line (HT-29, 50 nM, read-out: HT-29 Growth, % of Control Mean, n = 3), the activity at 0.05 µM was determined as 101%. The activity at 0.5 µM in the data set with HT29 cell line (HT-29, 500 nM, read-out: HT-29 Growth, % of Control Mean, n = 3) is less than 0%. Besides, the activity at 5 µM in the data set on HT29 cell line (HT-29, 5 uM, read-out: HT-29 Growth, % of Control Mean, n = 3) is less than 0%. For the same compound, in data set [1], the “formation of osteoclasts (staining)” value is listed as “inhibited” and the “number of TRAP-positive osteoclasts (formation)” value is on record as “reduced”. Also, the “number of resorption pits on the bone slices” value in [2] (FIG. 20B) is “reduced”. Besides, the “number of resorption pits on the bone slices (Toluidine Blue)” value in [2] (FIG. 21B) was “reduced”. The activity at 0.1 µM in the data set on c-Src 3T3 cells (NIH3T3, 100 nM, read-out: c-Src 3T3 Growth, % of Control Mean, n = 3) is 96%. The activity at 1 µM with c-Src 3T3 cells (NIH3T3, 1.0 uM, read-out: c-Src 3T3 Growth, % of Control Mean, n = 3) is less than 0%. Also, the activity at 10 µM in the data set with c-Src 3T3 cells (NIH3T3, 10 uM, read-out: c-Src 3T3 Growth, % of Control Mean, n = 3) is less than 0%. The GI50 in the data set with c-Src 3T3 cells (c-Src 3T3 (c-Src527F/NIH3T3) cells, read-out: GI50) is 269 nM. For the same compound, the “average dB threshold shifts” value in [3] is “lower”. Further, the “protein concentration in osteoblast cell lysates” value with osteoblasts (0.06 μM and 0.3 μM) is given as “increased protein concentration”. In addition, the “protein concentration in osteoblast cell lysates” value in the data set with osteoblasts ([…] and 7.5 μM) is given as “reduced protein concentration”. Besides, in [4] (FIG. 20A), the “number of osteoclasts on the bone slices” value is given as “reduced”. Also, the “number of TRAP-positive osteoclasts on the bone slices” value in data set [4] (FIG. 21A) is on record as “reduced”. In addition, in the data set with osteoclasts, the “number of TRAP-positive osteoclasts (survival)” value was “reduced” and the “survival of osteoclasts (staining)” value was “inhibited”.

For orientation: IC80 means the concentration needed for an effect of 80%. As a reminder, the IC50 is the concentration that gives 50% inhibition. With `Cc1nc(Nc2ncc(C(=O)Nc3c(C)cccc3Cl)s2)cc(N2CCN(CCO)CC2)n1` [Dasatinib, reference compound], the GI50 entry in data set [5] is “Inactive (n = 1)”; in the data set with Ba/F3 (IL-3 induced), “does not inhibit; also recorded: Inactive”; in the data set on K562 (CML), less than 1 nM; in data set [8] it was 644 nM. Also, the LN metastasis in [6] was 2/5. In addition, in data set [6], the Tumor incidence is recorded as 5/6. Further, the “Tumor weight (g) Median” value in [6] came out at 0.43 g. Also, the IC80 is greater than 50000 nM in the data set with Hep 3B; 7760 nM with H226; greater than 50000 nM with PLC/PRF/5; 45600 nM in the data set with WRL-68; 7140 nM in the data set with HuH7. For the same compound, the IC50 stood at 163 nM with H226 and 1970 nM with HuH7. Moreover, the “tolerability (reason for dose lowering at day 5)” value in data set [7] is listed as “weight loss”.
